Experimental data: PubChem BioAssay AID1963980 (Molecular Pharmacology Branch, DTP, NCI, 2024)
Each block holds one compound with its values, some of them ahead of it.

Test system: 475296-252-R-J1-PDC spheroid viability
Assay: Anticancer human tumor 475296-252-R-J1-PDC patient-derived rectal carcinoma cell line growth inhibition [PI3K]
Settings: spheroids with HUVEC and MSC; for IC50: curve of first compound; for viability, T/C: stronger effect = lower value
Outline: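 Combination activity was assessed by viability in multicellular tumor spheroids carrying HUVEC and MSC components. Agents were tested with PI3K inhibitors from a Cmax-based top dose (or 10 microM) downward in half-log increments.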

[1] = second compound 0.0316 µM, first compound 0.0316 µM
[2] = second compound 0.0316 µM, first compound 0.1 µM
[3] = second compound 0.0316 µM, first compound 0.316 µM
[4] = second compound 0.0316 µM, first compound 1 µM
[5] = second compound 0.0316 µM, first compound 3.16 µM
[6] = second compound 0.0316 µM, first compound 10 µM
[7] = second compound 0.1 µM, first compound 0.0316 µM
[8] = second compound 0.1 µM, first compound 0.1 µM
[9] = second compound 0.1 µM, first compound 0.316 µM
[10] = second compound 0.1 µM, first compound 1 µM
[11] = second compound 0.1 µM, first compound 3.16 µM
[12] = second compound 0.1 µM, first compound 10 µM
[13] = second compound 0.316 µM, first compound 0.0316 µM
[14] = second compound 0.316 µM, first compound 0.1 µM
[15] = second compound 0.316 µM, first compound 0.316 µM
[16] = second compound 0.316 µM, first compound 1 µM
[17] = second compound 0.316 µM, first compound 3.16 µM
[18] = second compound 0.316 µM, first compound 10 µM
[19] = second compound 1 µM, first compound 0.0316 µM
[20] = second compound 1 µM, first compound 0.1 µM
[21] = second compound 1 µM, first compound 0.316 µM
[22] = second compound 1 µM, first compound 1 µM
[23] = second compound 1 µM, first compound 3.16 µM
[24] = second compound 1 µM, first compound 10 µM
[25] = second compound 3.16 µM, first compound 0.0316 µM
[26] = second compound 3.16 µM, first compound 0.1 µM
[27] = second compound 3.16 µM, first compound 0.316 µM
[28] = second compound 3.16 µM, first compound 1 µM
[29] = second compound 3.16 µM, first compound 3.16 µM
[30] = second compound 3.16 µM, first compound 10 µM
[31] = second compound 10 µM, first compound 0.0316 µM
[32] = second compound 10 µM, first compound 0.1 µM
[33] = second compound 10 µM, first compound 0.316 µM
[34] = second compound 10 µM, first compound 1 µM
[35] = second compound 10 µM, first compound 3.16 µM
[36] = second compound 10 µM, first compound 10 µM
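Also: spheroids exposed to agents for seven days before readout.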

- IC50 (second compound 0.0316 µM): > 10 µM
- IC50 (second compound 0.1 µM): > 10 µM
- IC50 (second compound 0.316 µM): > 10 µM
- IC50 (second compound 1 µM): 6.37 µM
- IC50 (second compound 3.16 µM): 3.95 µM
- IC50 (second compound 10 µM): 1.76 µM
Compound: C#Cc1c(F)ccc2cc(O)cc(-c3ncc4c(N5CC6CCC(C5)N6)nc(OCC56CCCN5CC(F)C6)nc4c3F)c12 (stereo not given) + CC(Nc1ncnc2nc[nH]c12)c1cc2cccc(Cl)c2c(=O)n1-c1ccccc1
- viability, T/C [1]: 94.9%
- viability, T/C [2]: 73.8%
- viability, T/C [3]: 77.2%
- viability, T/C [4]: 71.8%
- viability, T/C [5]: 68.8%
- viability, T/C [6]: 46.7%
- viability, T/C [7]: 91.5%
- viability, T/C [8]: 96.5%
- viability, T/C [9]: 79.7%
- viability, T/C [10]: 71.7%
- viability, T/C [11]: 68.1%
- viability, T/C [12]: 54.4%
- viability, T/C [13]: 96.7%
- viability, T/C [14]: 83.3%
- viability, T/C [15]: 79.3%
- viability, T/C [16]: 73.5%
- viability, T/C [17]: 66.9%
- viability, T/C [18]: 47.3%
- viability, T/C [19]: 100%
- viability, T/C [20]: 85.5%
- viability, T/C [21]: 71.1%
- viability, T/C [22]: 70.3%
- viability, T/C [23]: 57.9%
- viability, T/C [24]: 43.8%
- viability, T/C [25]: 102%
- viability, T/C [26]: 88.6%
- viability, T/C [27]: 71.7%
- viability, T/C [28]: 61%
- viability, T/C [29]: 56%
- viability, T/C [30]: 40.6%
- viability, T/C [31]: 95.2%
- viability, T/C [32]: 81.6%
- viability, T/C [33]: 68.4%
- viability, T/C [34]: 55.4%
- viability, T/C [35]: 45.3%
- viability, T/C [36]: 31.8%

- IC50 (second compound 0.0316 µM): > 10 µM
- IC50 (second compound 0.1 µM): > 10 µM
- IC50 (second compound 0.316 µM): > 10 µM
- IC50 (second compound 1 µM): > 10 µM
- IC50 (second compound 3.16 µM): > 10 µM
- IC50 (second compound 10 µM): > 10 µM
Compound: C=CC(=O)N1CCN(c2nc(=O)n(-c3c(C)ccnc3C(C)C)c3nc(-c4c(O)cccc4F)c(F)cc23)C(C)C1 (stereo not given) + CC(Nc1ncnc2nc[nH]c12)c1cc2cccc(Cl)c2c(=O)n1-c1ccccc1
- viability, T/C [1]: 110%
- viability, T/C [2]: 98.7%
- viability, T/C [3]: 103%
- viability, T/C [4]: 89%
- viability, T/C [5]: 102%
- viability, T/C [6]: 103%
- viability, T/C [7]: 95.7%
- viability, T/C [8]: 92%
- viability, T/C [9]: 105%
- viability, T/C [10]: 87.9%
- viability, T/C [11]: 109%
- viability, T/C [12]: 101%
- viability, T/C [13]: 93.9%
- viability, T/C [14]: 90.2%
- viability, T/C [15]: 87.4%
- viability, T/C [16]: 96%
- viability, T/C [17]: 106%
- viability, T/C [18]: 116%
- viability, T/C [19]: 95.3%
- viability, T/C [20]: 97.2%
- viability, T/C [21]: 91.8%
- viability, T/C [22]: 92.1%
- viability, T/C [23]: 106%
- viability, T/C [24]: 93.5%
- viability, T/C [25]: 96.2%
- viability, T/C [26]: 92.9%
- viability, T/C [27]: 99.4%
- viability, T/C [28]: 107%
- viability, T/C [29]: 103%
- viability, T/C [30]: 90.2%
- viability, T/C [31]: 83.8%
- viability, T/C [32]: 91.9%
- viability, T/C [33]: 86.9%
- viability, T/C [34]: 80.7%
- viability, T/C [35]: 95.8%
- viability, T/C [36]: 95.6%

- IC50 (second compound 0.0316 µM): > 10 µM
- IC50 (second compound 0.1 µM): > 10 µM
- IC50 (second compound 0.316 µM): > 10 µM
- IC50 (second compound 1 µM): > 10 µM
- IC50 (second compound 3.16 µM): > 10 µM
- IC50 (second compound 10 µM): > 10 µM
Compound: CC(Cn1ccc(-c2ccc(C#N)c(Cl)c2)n1)NC(=O)c1cc(C(C)O)[nH]n1 (stereo not given) + CC(Nc1ncnc2nc[nH]c12)c1cc2cccc(Cl)c2c(=O)n1-c1ccccc1
- viability, T/C [1]: 97.8%
- viability, T/C [2]: 94.9%
- viability, T/C [3]: 96.6%
- viability, T/C [4]: 92.1%
- viability, T/C [5]: 102%
- viability, T/C [6]: 104%
- viability, T/C [7]: 99.1%
- viability, T/C [8]: 98.5%
- viability, T/C [9]: 91.7%
- viability, T/C [10]: 89%
- viability, T/C [11]: 101%
- viability, T/C [12]: 84.1%
- viability, T/C [13]: 97%
- viability, T/C [14]: 97.8%
- viability, T/C [15]: 94.1%
- viability, T/C [16]: 99.5%
- viability, T/C [17]: 104%
- viability, T/C [18]: 89.7%
- viability, T/C [19]: 94.4%
- viability, T/C [20]: 94.4%
- viability, T/C [21]: 89.5%
- viability, T/C [22]: 98.7%
- viability, T/C [23]: 113%
- viability, T/C [24]: 90.2%
- viability, T/C [25]: 95.1%
- viability, T/C [26]: 95.8%
- viability, T/C [27]: 83.4%
- viability, T/C [28]: 92.2%
- viability, T/C [29]: 94.5%
- viability, T/C [30]: 96.2%
- viability, T/C [31]: 95%
- viability, T/C [32]: 99.2%
- viability, T/C [33]: 104%
- viability, T/C [34]: 92.3%
- viability, T/C [35]: 95.1%
- viability, T/C [36]: 91.8%

- IC50 (second compound 0.0316 µM): > 10 µM
- IC50 (second compound 0.1 µM): > 10 µM
- IC50 (second compound 0.316 µM): > 10 µM
- IC50 (second compound 1 µM): > 10 µM
- IC50 (second compound 3.16 µM): > 10 µM
- IC50 (second compound 10 µM): > 10 µM
Compound: Cn1ncc(Cl)c1-c1cc(C(=O)NC(CN)Cc2cccc(F)c2)sc1Cl (stereo not given) + CC(Nc1ncnc2nc[nH]c12)c1cc2cccc(Cl)c2c(=O)n1-c1ccccc1
- viability, T/C [1]: 101%
- viability, T/C [2]: 83.3%
- viability, T/C [3]: 60.1%
- viability, T/C [4]: 71.5%
- viability, T/C [5]: 71.7%
- viability, T/C [6]: 61.5%
- viability, T/C [7]: 95.7%
- viability, T/C [8]: 80%
- viability, T/C [9]: 64.9%
- viability, T/C [10]: 63.6%
- viability, T/C [11]: 70.2%
- viability, T/C [12]: 57%
- viability, T/C [13]: 90.5%
- viability, T/C [14]: 77.6%
- viability, T/C [15]: 56.5%
- viability, T/C [16]: 65.4%
- viability, T/C [17]: 59.8%
- viability, T/C [18]: 57.6%
- viability, T/C [19]: 87.5%
- viability, T/C [20]: 74.7%
- viability, T/C [21]: 58.2%
- viability, T/C [22]: 60.5%
- viability, T/C [23]: 55.6%
- viability, T/C [24]: 62.1%
- viability, T/C [25]: 87%
- viability, T/C [26]: 80.4%
- viability, T/C [27]: 51.4%
- viability, T/C [28]: 50.9%
- viability, T/C [29]: 60.7%
- viability, T/C [30]: 52.1%
- viability, T/C [31]: 92.3%
- viability, T/C [32]: 77%
- viability, T/C [33]: 60.5%
- viability, T/C [34]: 58.8%
- viability, T/C [35]: 62.8%
- viability, T/C [36]: 46.7%

- IC50 (second compound 0.0316 µM): > 10 µM
- IC50 (second compound 0.1 µM): > 10 µM
- IC50 (second compound 0.316 µM): > 10 µM
- IC50 (second compound 1 µM): > 10 µM
- IC50 (second compound 3.16 µM): > 10 µM
- IC50 (second compound 10 µM): > 10 µM
Compound: Cn1nccc1Nc1nccc(-c2ccn(C(CO)c3ccc(Cl)c(F)c3)c(=O)c2)n1 (stereo not given) + CC(Nc1ncnc2nc[nH]c12)c1cc2cccc(Cl)c2c(=O)n1-c1ccccc1
- viability, T/C [1]: 94.3%
- viability, T/C [2]: 102%
- viability, T/C [3]: 89.8%
- viability, T/C [4]: 92.2%
- viability, T/C [5]: 92.9%
- viability, T/C [6]: 70.7%
- viability, T/C [7]: 90.2%
- viability, T/C [8]: 91.3%
- viability, T/C [9]: 96.1%
- viability, T/C [10]: 86.9%
- viability, T/C [11]: 80.7%
- viability, T/C [12]: 77.4%
- viability, T/C [13]: 93.4%
- viability, T/C [14]: 95.2%
- viability, T/C [15]: 101%
- viability, T/C [16]: 92.8%
- viability, T/C [17]: 86.9%
- viability, T/C [18]: 65.5%
- viability, T/C [19]: 97.8%
- viability, T/C [20]: 97.7%
- viability, T/C [21]: 98.5%
- viability, T/C [22]: 89.2%
- viability, T/C [23]: 93.6%
- viability, T/C [24]: 59.1%
- viability, T/C [25]: 97.4%
- viability, T/C [26]: 96.8%
- viability, T/C [27]: 89.2%
- viability, T/C [28]: 80.4%
- viability, T/C [29]: 82.2%
- viability, T/C [30]: 59.1%
- viability, T/C [31]: 90.9%
- viability, T/C [32]: 80.6%
- viability, T/C [33]: 91.2%
- viability, T/C [34]: 83.6%
- viability, T/C [35]: 76.4%
- viability, T/C [36]: 54.9%
